Reference: the NIST ThermoML archive (doi:10.1016/j.tca.2015.02.014)
± gives the expanded uncertainty stated by the source.

Assay: mn = molality of the nth substance listed, in mol/kg
Conditions: 100 kPa, Liquid; for viscosity: Capillary tube (Ostwald / Ubbelohde) method; for speed of sound: Frequency=3 MHz, Sing-around technique in a fixed-path interferometer; for mass density: Vibrating tube method

C[C@H](CCC(=O)[O-])[C@H]1CC[C@H]2[C@@H]3[C@H](O)C[C@@H]4C[C@H](O)CC[C@]4(C)[C@H]3C[C@H](O)[C@]12C.[Na+] [sodium cholate] + O
Conditions	mass density [kg/m3]	speed of sound [m/s]	viscosity [mPa·s]
293.15 K, m1 = 0.001	998.33 ± 0.12	1483 ± 1.3	1.003 ± 0.021
293.15 K, m1 = 0.002	998.422 ± 0.12	1483.3 ± 1.4	1.004 ± 0.021
293.15 K, m1 = 0.003	998.533 ± 0.12	1483.6 ± 1.4	1.005 ± 0.021
293.15 K, m1 = 0.004	998.618 ± 0.12	1483.8 ± 1.4	1.007 ± 0.021
293.15 K, m1 = 0.006	998.805 ± 0.12	1484.4 ± 1.4	1.011 ± 0.021
293.15 K, m1 = 0.008	999.003 ± 0.12	1485 ± 1.4	1.016 ± 0.021
293.15 K, m1 = 0.01	999.241 ± 0.12	1485.8 ± 1.4	1.021 ± 0.021
293.15 K, m1 = 0.014	999.685 ± 0.12	1486.9 ± 1.3	1.033 ± 0.022
293.15 K, m1 = 0.018	1000.14 ± 0.14	1487.9 ± 1.7	1.041 ± 0.024
293.15 K, m1 = 0.022	1000.59 ± 0.12	1488.8 ± 1.3	1.048 ± 0.021
293.15 K, m1 = 0.026	1001 ± 0.13	1489.7 ± 1.3	1.056 ± 0.021
293.15 K, m1 = 0.03	1001.44 ± 0.13	1490.2 ± 1.3	1.063 ± 0.022
298.15 K, m1 = 0.001	997.158 ± 0.12	1497 ± 1.3	0.8906 ± 0.021
298.15 K, m1 = 0.002	997.267 ± 0.12	1497.3 ± 1.3	0.8925 ± 0.021
298.15 K, m1 = 0.003	997.369 ± 0.12	1497.6 ± 1.3	0.8939 ± 0.021
298.15 K, m1 = 0.004	997.455 ± 0.12	1497.9 ± 1.3	0.8955 ± 0.021
298.15 K, m1 = 0.006	997.635 ± 0.12	1498.4 ± 1.3	0.8987 ± 0.021
298.15 K, m1 = 0.008	997.835 ± 0.12	1499.1 ± 1.3	0.902 ± 0.021
298.15 K, m1 = 0.01	998.035 ± 0.12	1499.7 ± 1.3	0.9055 ± 0.021
298.15 K, m1 = 0.014	998.454 ± 0.13	1500.8 ± 1.3	0.9168 ± 0.021
298.15 K, m1 = 0.018	998.905 ± 0.13	1501.7 ± 1.3	0.9239 ± 0.021
298.15 K, m1 = 0.022	999.354 ± 0.13	1502.6 ± 1.3	0.9315 ± 0.021
298.15 K, m1 = 0.026	999.746 ± 0.13	1503.4 ± 1.3	0.9373 ± 0.021
298.15 K, m1 = 0.03	1000.14 ± 0.12	1504 ± 1.3	0.9429 ± 0.021
303.15 K, m1 = 0.001	995.785 ± 0.13	1509.5 ± 1.3	0.798 ± 0.021
303.15 K, m1 = 0.002	995.901 ± 0.13	1509.8 ± 1.3	0.7991 ± 0.021
303.15 K, m1 = 0.003	996.001 ± 0.13	1510 ± 1.3	0.7999 ± 0.021
303.15 K, m1 = 0.004	996.102 ± 0.13	1510.2 ± 1.3	0.8022 ± 0.021
303.15 K, m1 = 0.006	996.301 ± 0.13	1510.7 ± 1.3	0.8047 ± 0.021
303.15 K, m1 = 0.008	996.513 ± 0.13	1511.3 ± 1.3	0.8075 ± 0.021
303.15 K, m1 = 0.01	996.724 ± 0.13	1511.8 ± 1.3	0.8105 ± 0.021
303.15 K, m1 = 0.014	997.167 ± 0.13	1512.8 ± 1.3	0.8215 ± 0.021
303.15 K, m1 = 0.018	997.524 ± 0.13	1513.8 ± 1.3	0.8281 ± 0.021
303.15 K, m1 = 0.022	997.945 ± 0.13	1514.6 ± 1.3	0.8321 ± 0.021
303.15 K, m1 = 0.026	998.31 ± 0.13	1515.4 ± 1.3	0.838 ± 0.021
303.15 K, m1 = 0.03	998.815 ± 0.13	1516.1 ± 1.3	0.8429 ± 0.021
308.15 K, m1 = 0.001	994.145 ± 0.14	1520.2 ± 1.3	0.7202 ± 0.021
308.15 K, m1 = 0.002	994.255 ± 0.13	1520.5 ± 1.3	0.7212 ± 0.021
308.15 K, m1 = 0.003	994.348 ± 0.13	1520.7 ± 1.3	0.7225 ± 0.021
308.15 K, m1 = 0.004	994.455 ± 0.14	1520.9 ± 1.3	0.7241 ± 0.021
308.15 K, m1 = 0.006	994.7 ± 0.13	1521.4 ± 1.3	0.7265 ± 0.021
308.15 K, m1 = 0.008	994.885 ± 0.13	1522 ± 1.3	0.7295 ± 0.021
308.15 K, m1 = 0.01	995.101 ± 0.13	1522.4 ± 1.3	0.7323 ± 0.021
308.15 K, m1 = 0.014	995.521 ± 0.13	1523.4 ± 1.3	0.7415 ± 0.021
308.15 K, m1 = 0.018	995.957 ± 0.13	1524.2 ± 1.3	0.7461 ± 0.021
308.15 K, m1 = 0.022	996.357 ± 0.13	1525 ± 1.3	0.7509 ± 0.021
308.15 K, m1 = 0.026	996.744 ± 0.13	1525.8 ± 1.3	0.7561 ± 0.021
308.15 K, m1 = 0.03	997.176 ± 0.13	1526.4 ± 1.3	0.7619 ± 0.021
313.15 K, m1 = 0.001	992.351 ± 0.14	1529.3 ± 1.3	0.6535 ± 0.021
313.15 K, m1 = 0.002	992.449 ± 0.14	1529.6 ± 1.3	0.6544 ± 0.021
313.15 K, m1 = 0.003	992.547 ± 0.14	1529.8 ± 1.3	0.6556 ± 0.021
313.15 K, m1 = 0.004	992.655 ± 0.14	1530 ± 1.3	0.6571 ± 0.021
313.15 K, m1 = 0.006	992.873 ± 0.14	1530.4 ± 1.3	0.6595 ± 0.021
313.15 K, m1 = 0.008	993.087 ± 0.14	1530.9 ± 1.3	0.662 ± 0.021
313.15 K, m1 = 0.01	993.304 ± 0.14	1531.3 ± 1.3	0.6648 ± 0.021
313.15 K, m1 = 0.014	993.711 ± 0.14	1532.3 ± 1.3	0.6722 ± 0.021
313.15 K, m1 = 0.018	994.126 ± 0.14	1533.1 ± 1.3	0.6772 ± 0.021
313.15 K, m1 = 0.022	994.505 ± 0.14	1533.9 ± 1.3	0.6813 ± 0.021
313.15 K, m1 = 0.026	994.935 ± 0.14	1534.6 ± 1.3	0.6865 ± 0.021
313.15 K, m1 = 0.03	995.354 ± 0.14	1535.2 ± 1.3	0.6918 ± 0.021
318.15 K, m1 = 0.001	990.351 ± 0.14	1536.9 ± 1.3	0.5973 ± 0.021
318.15 K, m1 = 0.002	990.445 ± 0.14	1537.2 ± 1.3	0.5985 ± 0.021
318.15 K, m1 = 0.003	990.539 ± 0.14	1537.3 ± 1.3	0.5997 ± 0.021
318.15 K, m1 = 0.004	990.629 ± 0.14	1537.5 ± 1.3	0.6013 ± 0.021
318.15 K, m1 = 0.006	990.864 ± 0.14	1537.9 ± 1.3	0.6035 ± 0.021
318.15 K, m1 = 0.008	991.051 ± 0.14	1538.3 ± 1.3	0.6062 ± 0.021
318.15 K, m1 = 0.01	991.257 ± 0.14	1538.7 ± 1.3	0.609 ± 0.021
318.15 K, m1 = 0.014	991.671 ± 0.23	1539.5 ± 1.3	0.6161 ± 0.021
318.15 K, m1 = 0.018	992.088 ± 0.15	1540.4 ± 1.3	0.6201 ± 0.021
318.15 K, m1 = 0.022	992.491 ± 0.14	1541.2 ± 1.3	0.6245 ± 0.021
318.15 K, m1 = 0.026	992.905 ± 0.14	1541.9 ± 1.3	0.6291 ± 0.021
318.15 K, m1 = 0.03	993.313 ± 0.14	1542.5 ± 1.3	0.6328 ± 0.021
